Data on two compounds can be found in PubChem BioAssay AID1963975 (Molecular Pharmacology Branch, DTP, NCI, 2024).

Bounds are passed on as bounds.

This test has as its system 624824-186-R-J2-PDC multicell spheroids, viability. Nature of the test: Anticancer human tumor 624824-186-R-J2-PDC patient-derived colon adenocarcinoma cell line growth inhibition [PI3K]. The note with it: for viability, T/C: stronger effect = lower value. An outline of the steps:
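Tumor cells grown as multi-cell spheroids with HUVEC endothelial cells and MSC fibroblast-like stroma were treated with targeted agents combined with inavolisib, alpelisib, duvelisib or copanlisib. Doses fell in half-log steps from near clinical Cmax, else from 10 microM. Viability was measured.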
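Further: spheroids exposed to agents for 7 days before viability read.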
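Wherever viability, T/C is given: 100% = DMSO vehicle treated spheroids.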

Take `CCN1CCN(Cc2ccc(Nc3ncc(F)c(-c4cc(F)c5nc(C)n(C(C)C)c5c4)n3)nc2)CC1` + COc1c(OCCCN2CCOCC2)ccc2c3n(c(=NC(=O)c4cnc(N)nc4)nc12)CCN3: the IC50 was above 1 µM (curve of first compound, second compound 0.00316 µM); above 1 µM (curve of first compound, second compound 0.01 µM); above 1 µM (curve of first compound, second compound 0.0316 µM); above 1 µM (curve of first compound, second compound 0.1 µM); above 1 µM (curve of first compound, second compound 0.316 µM); above 1 µM (curve of first compound, second compound 1 µM). Further, the viability, T/C (second compound 0.00316 µM, first compound 0.00316 µM) is 94.1%; the viability, T/C (second compound 0.00316 µM, first compound 0.01 µM) was 90.4%; the viability, T/C (second compound 0.00316 µM, first compound 0.0316 µM) was 107%; the viability, T/C (second compound 0.00316 µM, first compound 0.1 µM) was 76.5%; the viability, T/C (second compound 0.00316 µM, first compound 0.316 µM) is 89.4%; the viability, T/C (second compound 0.00316 µM, first compound 1 µM) was 106%. The viability, T/C runs as follows: (second compound 0.01 µM, first compound 0.00316 µM) 120%; (second compound 0.01 µM, first compound 0.01 µM) 73.7%; (second compound 0.01 µM, first compound 0.0316 µM) 78.7%; (second compound 0.01 µM, first compound 0.1 µM) 75.9%; (second compound 0.01 µM, first compound 0.316 µM) 81.7%; (second compound 0.01 µM, first compound 1 µM) 94.6%. Also, the viability, T/C by setting is: (second compound 0.0316 µM, first compound 0.00316 µM) 91.8%; (second compound 0.0316 µM, first compound 0.01 µM) 99.1%; (second compound 0.0316 µM, first compound 0.0316 µM) 75.3%; (second compound 0.0316 µM, first compound 0.1 µM) 66.9%; (second compound 0.0316 µM, first compound 0.316 µM) 80.5%; (second compound 0.0316 µM, first compound 1 µM) 89.9%. Besides, the viability, T/C reads like this: (second compound 0.1 µM, first compound 0.00316 µM) 81.1%; (second compound 0.1 µM, first compound 0.01 µM) 63.4%; (second compound 0.1 µM, first compound 0.0316 µM) 64.6%; (second compound 0.1 µM, first compound 0.1 µM) 54.2%; (second compound 0.1 µM, first compound 0.316 µM) 68.2%; (second compound 0.1 µM, first compound 1 µM) 83.8%. The viability, T/C is 69.1% (second compound 0.316 µM, first compound 0.00316 µM); 57.6% (second compound 0.316 µM, first compound 0.01 µM); 58.9% (second compound 0.316 µM, first compound 0.0316 µM); 58.9% (second compound 0.316 µM, first compound 0.1 µM); 69.4% (second compound 0.316 µM, first compound 0.316 µM); 91.8% (second compound 0.316 µM, first compound 1 µM). In addition, the viability, T/C is 64.2% (second compound 1 µM, first compound 0.00316 µM); 56.9% (second compound 1 µM, first compound 0.01 µM); 61.4% (second compound 1 µM, first compound 0.0316 µM); 62.9% (second compound 1 µM, first compound 0.1 µM); 72.9% (second compound 1 µM, first compound 0.316 µM); 88% (second compound 1 µM, first compound 1 µM).
On to `Cn1cnc2c(F)c(Nc3ccc(Br)cc3Cl)c(C(=O)NOCCO)cc21`, for which the viability, T/C runs as follows: (compound 0.00949 µM) 85.4% [middle of 4 runs]; (compound 0.949 µM) 79.5% [middle of 4 runs]. Also, the IC50 (curve of compound) is above 3 µM.
